Results on eleven compounds are retold here after ChEMBL document CHEMBL1201862, “PubChem BioAssay data set” (2004).

Among the test systems are HCT-15; TK-10; HL-60; MDA-MB-231; MCF7; ACHN; PC-3; OVCAR-4; SR; NCI-H460; UACC-257; MDA-N; HT-29; COLO 205; SNB-75; SF-268; M14; EKVX; NCI-H522; HCC 2998.
Holding throughout (assay): NCI anticancer screen, dose series, 48 h

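96-well plates; 48 h exposure; 5 concentrations. Endpoints by linear interpolation between flanking doses. Not reached: highest tested concentration assigned. At the GI50, growth is halved.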 Activity calls are given as the source filed them. No stated cut-off is given here; in the data, active = GI50 up to about 1.1 µM and inactive = higher. A value given as a limit tells only on which side of the number the result lay.

In the case of `COc1cc(Cl)c(CC(=O)c2c[nH]c3ccccc23)cc1OC`, the GI50 in the assay on HCT-15 was over 100 µM; in the assay on TK-10, 16.9 µM (inactive); in the assay with HL-60, > 37.2 µM (inactive); with MDA-MB-231, 8.95 µM (inactive); with MCF7, > 100 µM (inactive); in the assay with ACHN it was 8.55 µM (inactive). For the same compound, the GI50 in the assay on PC-3, in the assay on OVCAR-4, in the assay with SR, in the assay on NCI-H460, in the assay with UACC-257 and in the assay with MDA-N was > 100 µM (inactive) in each case. In addition, the GI50 with HT-29 is > 100 µM (inactive); with COLO 205, > 100 µM (inactive); with SNB-75, 8.93 µM (inactive); with SF-268, 13.7 µM (inactive); in the assay with M14, > 100 µM (inactive); in the assay on EKVX it was 18.7 µM (inactive).
Consider `O=[N+]([O-])c1ccc(CSCc2ccc(Cl)cc2)cc1`, for which the GI50 was over 100 µM in the assay on HCT-15; 20 µM (inactive) with NCI-H522; > 100 µM (inactive) in the assay with TK-10; 33.1 µM (inactive) with HL-60; > 100 µM (inactive) in the assay on MDA-MB-231; > 100 µM (inactive) in the assay on MCF7. Also, the GI50 in the assay with ACHN was > 100 µM (inactive); with PC-3 it was > 100 µM (inactive); in the assay on OVCAR-4, > 100 µM (inactive); in the assay on SR, 23.8 µM (inactive); with NCI-H460, > 100 µM (inactive); in the assay on UACC-257, > 100 µM (inactive). Besides, the GI50 is > 100 µM (inactive) in the assay with MDA-N; 78.3 µM (inactive) in the assay with HT-29; > 100 µM (inactive) with COLO 205; > 100 µM (inactive) in the assay on SNB-75; > 100 µM (inactive) in the assay on SF-268; > 100 µM (inactive) in the assay with M14. The GI50 with EKVX was > 100 µM (inactive).
As for `COc1ccccc1C(=O)c1c(NCc2ccccc2)c(=O)c1=O`, the GI50 in the assay with HCT-15 was 27.4 µM; in the assay on NCI-H522, 11.5 µM (inactive); in the assay on TK-10, > 100 µM (inactive); in the assay on HL-60, 21 µM (inactive); in the assay on MDA-MB-231 it was > 100 µM (inactive); in the assay on MCF7, 0.0254 µM (active). Moreover, the GI50 with ACHN, in the assay on PC-3, in the assay on OVCAR-4, in the assay with NCI-H460, with UACC-257 and with MDA-N was > 100 µM (inactive) throughout. Moreover, the GI50 was > 100 µM (inactive) in the assay on HCC 2998; > 100 µM (inactive) with HT-29; 28.3 µM (inactive) in the assay on COLO 205; > 100 µM (inactive) with SNB-75; > 100 µM (inactive) with SF-268; > 100 µM (inactive) in the assay on M14. Also, the GI50 in the assay on EKVX is > 100 µM (inactive).
For the compound `CN(CC(=O)O)c1ncc2c(n1)CCCC2`, the GI50 with HCT-15 is over 100 µM; with NCI-H522, > 100 µM (inactive); in the assay on TK-10 it was > 100 µM (inactive); in the assay with HL-60 it was > 100 µM (inactive); in the assay with MDA-MB-231 it was > 100 µM (inactive); with MCF7, > 100 µM (inactive). The GI50 in the assay on ACHN, in the assay on PC-3, in the assay with OVCAR-4, with SR, in the assay with NCI-H460 and in the assay on UACC-257 was > 100 µM (inactive) throughout. Also, the GI50 in the assay on MDA-N, with HT-29, with COLO 205, with SNB-75, in the assay with SF-268 and in the assay with M14 was > 100 µM (inactive) each time. In addition, the GI50 with EKVX was > 100 µM (inactive).
For `NC(=O)CC1OC(=O)Cc2cc3c(c(O)c21)C(=O)c1c(O)cccc1C3=O` (stereo not drawn), the GI50 in the assay on HCT-15 was 71.4 µM; in the assay with NCI-H522, > 100 µM (inactive); in the assay on TK-10 it was > 100 µM (inactive); with HL-60, > 100 µM (inactive); with MDA-MB-231, > 100 µM (inactive); in the assay with MCF7 it was > 100 µM (inactive). Besides, the GI50 in the assay on ACHN is 41.5 µM (inactive); in the assay on PC-3, > 100 µM (inactive); in the assay on OVCAR-4 it was > 100 µM (inactive); in the assay on SR it was 43.7 µM (inactive); in the assay on NCI-H460, 89.5 µM (inactive); in the assay with UACC-257, > 100 µM (inactive). Also, the GI50 in the assay on MDA-N was > 100 µM (inactive); with HCC 2998, > 100 µM (inactive); in the assay on HT-29, > 100 µM (inactive); with COLO 205, 61.2 µM (inactive); in the assay with M14, > 100 µM (inactive); in the assay on EKVX, > 100 µM (inactive).
Consider `c1ccc(COC2NCCN2Cc2ccccc2)cc1` (stereo not drawn), for which the GI50 with HCT-15 was over 100 µM; in the assay on NCI-H522, > 100 µM (inactive); in the assay on TK-10, > 100 µM (inactive); in the assay with HL-60, 69 µM (inactive); in the assay with MDA-MB-231, > 100 µM (inactive); in the assay with MCF7, > 100 µM (inactive). In addition, the GI50 in the assay with ACHN was > 100 µM (inactive); with PC-3, > 100 µM (inactive); with OVCAR-4 it was > 100 µM (inactive); in the assay on SR it was > 100 µM (inactive); in the assay with NCI-H460, > 100 µM (inactive); with UACC-257, 61 µM (inactive). In addition, the GI50 in the assay with MDA-N was > 100 µM (inactive); with HT-29 it was > 100 µM (inactive); in the assay with COLO 205 it was > 100 µM (inactive); with SNB-75 it was 97.7 µM (inactive); in the assay with SF-268, > 100 µM (inactive); in the assay on M14 it was > 100 µM (inactive). Moreover, the GI50 in the assay with EKVX is 51.2 µM (inactive).
`COc1ccc(/C=C/C(=O)c2nc3ccccc3[nH]2)cc1`: the GI50 is 10.9 µM with HCT-15; 13.6 µM (inactive) in the assay with NCI-H522; 18.1 µM (inactive) in the assay with TK-10; 9.79 µM (inactive) in the assay with HL-60; 23.4 µM (inactive) in the assay with MDA-MB-231; 8.38 µM (inactive) in the assay on MCF7. Also, the GI50 in the assay with ACHN is 15.1 µM (inactive); in the assay with PC-3 it was 21.8 µM (inactive); in the assay with OVCAR-4, 21.1 µM (inactive); in the assay with SR, 2.71 µM (inactive); with NCI-H460, 20.5 µM (inactive); with UACC-257, 22 µM (inactive). The GI50 is 11.9 µM (inactive) in the assay on MDA-N; 7.03 µM (inactive) with HT-29; 13.2 µM (inactive) in the assay on COLO 205; 19.8 µM (inactive) with SNB-75; 15.2 µM (inactive) with SF-268; 20.3 µM (inactive) in the assay with M14. For the same compound, the GI50 in the assay on EKVX was 15.1 µM (inactive).
With `O=C1c2ccccc2C2(c3ccc(Cl)cc3)N[C@@H]3CCCC[C@@H]3N12` (stereo partly drawn), the GI50 in the assay with HCT-15 was over 100 µM; with TK-10, > 100 µM (inactive); in the assay with HL-60 it was 50.1 µM (inactive); with MDA-MB-231, > 100 µM (inactive); in the assay with MCF7, > 100 µM (inactive); in the assay on ACHN, > 100 µM (inactive). Besides, the GI50 with PC-3, in the assay with OVCAR-4, in the assay with SR, with NCI-H460, in the assay with UACC-257 and in the assay with MDA-N was > 100 µM (inactive) each time. For the same compound, the GI50 in the assay on HCC 2998, with COLO 205, with SNB-75, in the assay on SF-268, in the assay with M14 and with EKVX was > 100 µM (inactive) throughout.
On to `O=C1CCN2C(=N1)Sc1ccccc12`, for which the GI50 in the assay with HCT-15 was over 100 µM; with NCI-H522 it was > 100 µM (inactive); in the assay on TK-10 it was > 100 µM (inactive); in the assay on HL-60 it was > 100 µM (inactive); with MDA-MB-231, > 100 µM (inactive); in the assay with MCF7, > 100 µM (inactive). For the same compound, the GI50 in the assay with ACHN, in the assay with PC-3, in the assay on OVCAR-4, in the assay with SR, in the assay with NCI-H460 and with UACC-257 was > 100 µM (inactive) each time. The GI50 in the assay on MDA-N, in the assay on HT-29, in the assay on COLO 205, with SNB-75, in the assay with SF-268 and in the assay with M14 was > 100 µM (inactive) in each case. Also, the GI50 with EKVX was > 100 µM (inactive).
Consider `CN(C(=O)Cc1cc(Cl)c(Cl)cc1NC(=O)CN)[C@H]1CCCC[C@@H]1N1CCCC1`, for which the GI50 is 37 µM with HCT-15; 37.9 µM (inactive) in the assay on TK-10; 19.1 µM (inactive) in the assay with HL-60; 23.3 µM (inactive) in the assay on MDA-MB-231; 28.6 µM (inactive) with MCF7; 79.8 µM (inactive) in the assay on ACHN. Also, the GI50 is 37.1 µM (inactive) in the assay with PC-3; > 100 µM (inactive) in the assay with OVCAR-4; 29 µM (inactive) in the assay with SR; 29.6 µM (inactive) in the assay with NCI-H460; 18.6 µM (inactive) with UACC-257; 15.3 µM (inactive) in the assay with MDA-N. Also, the GI50 in the assay with HCC 2998 is 16.6 µM (inactive); in the assay on HT-29, 20.7 µM (inactive); in the assay with SNB-75, 20.7 µM (inactive); with SF-268 it was 77.1 µM (inactive); in the assay on M14, 18.2 µM (inactive); with EKVX, > 100 µM (inactive).
As to `O=Cc1c2c(cc3c1CC1(C3)Cc3cc4c(c(C=O)c3C1)CCC4)CCC2`, the GI50 with HCT-15 is over 100 µM; with NCI-H522 it was 24.9 µM (inactive); in the assay on TK-10, 32.5 µM (inactive); in the assay with HL-60 it was 27.5 µM (inactive); in the assay with MDA-MB-231 it was 23.5 µM (inactive); in the assay on MCF7, 36 µM (inactive). Besides, the GI50 with ACHN was 16.6 µM (inactive); in the assay with PC-3, 30.3 µM (inactive); with OVCAR-4, 20.9 µM (inactive); with SR, 35.1 µM (inactive); in the assay with UACC-257, 34.8 µM (inactive); in the assay with MDA-N, 48.2 µM (inactive). Moreover, the GI50 with HCC 2998 is 36.6 µM (inactive); in the assay on HT-29 it was 31.3 µM (inactive); in the assay with COLO 205, 27.2 µM (inactive); in the assay on M14, 32.6 µM (inactive); in the assay on EKVX it was 47.3 µM (inactive).
